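Five concentrations, 48 hours, 96-well plates. The concentration for 50% growth inhibition is given as GI50.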 Activity calls are given as the source filed them. No stated cut-off is given here; in the data, active = GI50 up to about 1.1 µM and inactive = higher.
What was measured:
Assay in all cases: growth of human tumour cells (NCI), 48 h
[1] = system: A498
[2] = system: DU-145
[3] = system: KM12
[4] = system: SF-268
[5] = system: SK-MEL-2
[6] = system: M14
[7] = system: NCI-H460
[8] = system: RXF 393
[9] = system: SW-620
[10] = system: ACHN
[11] = system: MCF7
[12] = system: K562
[13] = system: MOLT-4
[14] = system: 786-0
[15] = system: TK-10
[16] = system: MDA-MB-435
[17] = system: PC-3
[18] = system: SK-MEL-5
[19] = system: U-251
[20] = system: UACC-62

Row | Structure (SMILES) | GI50 [1] | GI50 [2] | GI50 [3] | GI50 [4] | GI50 [5] | GI50 [6] | GI50 [7] | GI50 [8] | GI50 [9] | GI50 [10] | GI50 [11] | GI50 [12] | GI50 [13] | GI50 [14] | GI50 [15] | GI50 [16] | GI50 [17] | GI50 [18] | GI50 [19] | GI50 [20]
1 | COC(=O)c1ccc(-n2c(C)nc(=O)c(-c3ccccc3)c2C)cc1 | > 100 µM (inactive) | > 100 µM (inactive) | > 100 µM (inactive) | > 100 µM (inactive) | 30.7 µM (inactive) | > 100 µM (inactive) | > 100 µM (inactive) | > 100 µM (inactive) | > 100 µM (inactive) | > 100 µM (inactive) | > 100 µM (inactive) | > 100 µM (inactive) | > 100 µM (inactive) | > 100 µM (inactive) | > 100 µM (inactive) | > 100 µM (inactive) | > 100 µM (inactive) | > 100 µM (inactive) | > 100 µM (inactive) | –
2 | COC(=O)CNC(=O)CCSc1nnc(COc2ccc(Cl)cc2)n1-c1ccccc1 | > 100 µM (inactive) | 20.9 µM (inactive) | 34 µM (inactive) | 20.3 µM (inactive) | 23.4 µM (inactive) | 23.4 µM (inactive) | 31.4 µM (inactive) | 25.8 µM (inactive) | 39.5 µM (inactive) | 34.4 µM (inactive) | 71.3 µM (inactive) | 30.3 µM (inactive) | 24.7 µM (inactive) | 20.2 µM (inactive) | 17.5 µM (inactive) | 24.1 µM (inactive) | 52 µM (inactive) | – | 64.3 µM (inactive) | 20.2 µM (inactive)
3 | N#Cc1c(-c2ccc(Cl)cc2)c2c([nH]c1=O)-c1cc([N+](=O)[O-])ccc1CCC2 | 16.1 µM (inactive) | 35.8 µM (inactive) | 16.4 µM (inactive) | 17.3 µM (inactive) | 18 µM (inactive) | 24.1 µM (inactive) | 14.1 µM (inactive) | 16.1 µM (inactive) | 33.2 µM (inactive) | 25.3 µM (inactive) | 24.9 µM (inactive) | 35.4 µM (inactive) | 38 µM (inactive) | 25.1 µM (inactive) | 34.8 µM (inactive) | 29.9 µM (inactive) | 29.4 µM (inactive) | 16.6 µM (inactive) | 17.5 µM (inactive) | 13.5 µM (inactive)
4 | O=C1CSC2(CCN(CCCN3c4ccccc4Sc4ccc(Cl)cc43)CC2)N1 | 15.5 µM (inactive) | 11.9 µM (inactive) | 6.65 µM (inactive) | 8.34 µM (inactive) | 16.2 µM (inactive) | 6.81 µM (inactive) | 4.08 µM (inactive) | 3.07 µM (inactive) | 11.2 µM (inactive) | 11.6 µM (inactive) | 5.9 µM (inactive) | 3.79 µM (inactive) | – | 11.2 µM (inactive) | 9.4 µM (inactive) | 11.4 µM (inactive) | 5.37 µM (inactive) | 11 µM (inactive) | 8.51 µM (inactive) | 11.5 µM (inactive)
5 | O=[N+]([O-])c1ccccc1S(=O)(=O)c1cc(Cl)cc2c1NCCC2 | > 100 µM (inactive) | 94.6 µM (inactive) | 85.9 µM (inactive) | > 100 µM (inactive) | 43.6 µM (inactive) | 63 µM (inactive) | 77.3 µM (inactive) | 63 µM (inactive) | > 100 µM (inactive) | 56.6 µM (inactive) | 39.4 µM (inactive) | 37.5 µM (inactive) | 31.8 µM (inactive) | 80 µM (inactive) | > 100 µM (inactive) | 35.5 µM (inactive) | 52.1 µM (inactive) | 29.7 µM (inactive) | – | 38.5 µM (inactive)
6 | COC(=O)CC(CNC(=O)OCc1ccccc1)OCc1ccc(OC)cc1 (stereo not given) | > 100 µM (inactive) | > 100 µM (inactive) | > 100 µM (inactive) | – | > 100 µM (inactive) | > 100 µM (inactive) | > 100 µM (inactive) | > 100 µM (inactive) | > 100 µM (inactive) | > 100 µM (inactive) | > 100 µM (inactive) | > 100 µM (inactive) | > 100 µM (inactive) | > 100 µM (inactive) | > 100 µM (inactive) | > 100 µM (inactive) | 99.5 µM (inactive) | > 100 µM (inactive) | > 100 µM (inactive) | > 100 µM (inactive)
7 | CC1=NN(c2nc(N)nc(/C(C#N)=C\c3cccc([N+](=O)[O-])c3)n2)C(C)(C)C1 | > 23 µM (inactive) | 12.7 µM (inactive) | 14.9 µM (inactive) | 10.7 µM (inactive) | 16.4 µM (inactive) | 20 µM (inactive) | 4.31 µM (inactive) | 5.19 µM (inactive) | 8.75 µM (inactive) | 15.8 µM (inactive) | 6.82 µM (inactive) | 11.9 µM (inactive) | 34.6 µM (inactive) | 6.58 µM (inactive) | 15.7 µM (inactive) | 11.2 µM (inactive) | 11.5 µM (inactive) | 20.5 µM (inactive) | 6.78 µM (inactive) | 19.6 µM (inactive)
8 | CC(C)C(N)(C(=O)O)c1ccccc1 (stereo not given) | > 100 µM (inactive) | > 100 µM (inactive) | > 100 µM (inactive) | > 100 µM (inactive) | > 100 µM (inactive) | > 100 µM (inactive) | > 100 µM (inactive) | > 100 µM (inactive) | > 100 µM (inactive) | > 100 µM (inactive) | > 100 µM (inactive) | > 100 µM (inactive) | – | > 100 µM (inactive) | > 100 µM (inactive) | > 100 µM (inactive) | > 100 µM (inactive) | > 100 µM (inactive) | > 100 µM (inactive) | > 100 µM (inactive)
9 | CCc1ncnc2cc(OCC3CO3)c(OC)cc12 (stereo not given) | 21.3 µM (inactive) | 4.15 µM (inactive) | 5.58 µM (inactive) | 2.64 µM (inactive) | 3.32 µM (inactive) | 5.28 µM (inactive) | 5.53 µM (inactive) | 2.28 µM (inactive) | 0.735 µM (active) | 1.37 µM (inactive) | 0.557 µM (active) | 1.1 µM (active) | 0.153 µM (active) | 0.902 µM (active) | 10.8 µM (inactive) | 5.12 µM (inactive) | 7.31 µM (inactive) | 6.34 µM (inactive) | 4.31 µM (inactive) | 2.86 µM (inactive)
10 | C/C(=N\N=C(\N)SB(F)F)c1ccc2ccccc2c1 | > 100 µM (inactive) | > 100 µM (inactive) | > 100 µM (inactive) | 86.5 µM (inactive) | > 100 µM (inactive) | > 100 µM (inactive) | > 100 µM (inactive) | 62.8 µM (inactive) | 71.8 µM (inactive) | > 100 µM (inactive) | 87.7 µM (inactive) | > 100 µM (inactive) | – | > 100 µM (inactive) | > 100 µM (inactive) | > 100 µM (inactive) | > 100 µM (inactive) | > 100 µM (inactive) | > 100 µM (inactive) | > 100 µM (inactive)
11 | O=C(c1ccc(Cl)cc1)N(C(=S)OC12CC3CC(CC(C3)C1)C2)c1ccccc1 | 64.7 µM (inactive) | 76.4 µM (inactive) | 39.1 µM (inactive) | 43.3 µM (inactive) | 30.1 µM (inactive) | 34 µM (inactive) | 30 µM (inactive) | 99.8 µM (inactive) | 34.4 µM (inactive) | 34.8 µM (inactive) | 33.3 µM (inactive) | 29.8 µM (inactive) | 26.9 µM (inactive) | 29.6 µM (inactive) | 37.1 µM (inactive) | 43.8 µM (inactive) | 34 µM (inactive) | 32 µM (inactive) | 30.2 µM (inactive) | 40.6 µM (inactive)
12 | COc1ccc(-c2cc(-c3ccc(Nc4ccnc5cc(C(F)(F)F)ccc45)cc3)nc(N)c2C#N)cc1 | > 100 µM (inactive) | > 100 µM (inactive) | 86.9 µM (inactive) | – | 45.2 µM (inactive) | 96.8 µM (inactive) | > 100 µM (inactive) | > 100 µM (inactive) | 62.1 µM (inactive) | > 100 µM (inactive) | 35.9 µM (inactive) | > 100 µM (inactive) | 95.5 µM (inactive) | > 100 µM (inactive) | > 100 µM (inactive) | > 100 µM (inactive) | 45.1 µM (inactive) | > 100 µM (inactive) | 75 µM (inactive) | 40.6 µM (inactive)
13 | Nc1nccc(NCC2(CO)CCC2)n1 | > 100 µM (inactive) | > 100 µM (inactive) | > 100 µM (inactive) | > 100 µM (inactive) | > 100 µM (inactive) | – | > 100 µM (inactive) | > 100 µM (inactive) | > 100 µM (inactive) | > 100 µM (inactive) | 68.9 µM (inactive) | > 100 µM (inactive) | > 100 µM (inactive) | > 100 µM (inactive) | 36.7 µM (inactive) | > 100 µM (inactive) | > 100 µM (inactive) | > 100 µM (inactive) | > 100 µM (inactive) | > 100 µM (inactive)
14 | CNc1c2c(c3nc4ccccc4c4c3c1N=C4)NCCC2=O [PLAKINIDINE A] | 2.67 µM (inactive) | > 10 µM (inactive) | 4.79 µM (inactive) | 3.33 µM (inactive) | > 10 µM (inactive) | > 10 µM (inactive) | 3.15 µM (inactive) | 5.41 µM (inactive) | 2.44 µM (inactive) | 2.07 µM (inactive) | 2.66 µM (inactive) | 2.43 µM (inactive) | 1.32 µM (inactive) | 2.41 µM (inactive) | 8.51 µM (inactive) | 5.79 µM (inactive) | 3.46 µM (inactive) | 6.55 µM (inactive) | 5.87 µM (inactive) | –
